Values quoted from earlier work as cited in US5180725A, “Quinoxalinyl/quinoxaliy; alkyl-N-terminal amino hydroxy” (G. D. Searle & Co., priority 1991, dated 1993).
Square brackets hold non-standard residues; d marks the D form. Peptide text beside a SMILES is read from it. * marks the point of attachment. Sta = CC(C)C[C@H](N)[C@@H](O)CC(=O)O; Isovaleryl = CC(C)CC(=O)*

Tested on: hog renin
Settings: after the injection of hog renin into nephrectomized rats

CC(C)CC(=O)N[C@H](C(=O)N[C@H](C(=O)N[C@@H](CC(C)C)[C@@H](O)CC(=O)N[C@@H](C)C(=O)N[C@@H](CC(C)C)[C@@H](O)CC(=O)O)C(C)C)C(C)C [pepstatin] (Isovaleryl-VV[Sta]A[Sta]-OH)
blood pressure in vivo: found to reduce blood pressure in vivo
